In patent publication EP2650284A1, “Heterocyclic derivatives as metabotropic glutamate receptor modulators” (Merz Pharma GmbH & Co. KGaA, priority 2012, dated 2013):
pEC50: −log10 of the molar value.

How the values were obtained:
[1] = target: T1, mGluR5 receptors (Rattus norvegicus, UniProt P31424); assay: Cytosolic calcium studies with astrocytes (FLIPR), functional assay of mGluR5 receptors; format: cell-based; conditions: for pEC50: Table A1, positive modulators, fixed concentration of quisqualate (normally 10-30 nM), read-out: rEC50
T1 construct: Primary astrocyte cultures are prepared from cortices of newborn rats; endogenous in cells; host or cells: primary cortical astrocytes from Sprague-Dawley rat pups (2-4 d old)
T1 sequence (P31424 21-1203): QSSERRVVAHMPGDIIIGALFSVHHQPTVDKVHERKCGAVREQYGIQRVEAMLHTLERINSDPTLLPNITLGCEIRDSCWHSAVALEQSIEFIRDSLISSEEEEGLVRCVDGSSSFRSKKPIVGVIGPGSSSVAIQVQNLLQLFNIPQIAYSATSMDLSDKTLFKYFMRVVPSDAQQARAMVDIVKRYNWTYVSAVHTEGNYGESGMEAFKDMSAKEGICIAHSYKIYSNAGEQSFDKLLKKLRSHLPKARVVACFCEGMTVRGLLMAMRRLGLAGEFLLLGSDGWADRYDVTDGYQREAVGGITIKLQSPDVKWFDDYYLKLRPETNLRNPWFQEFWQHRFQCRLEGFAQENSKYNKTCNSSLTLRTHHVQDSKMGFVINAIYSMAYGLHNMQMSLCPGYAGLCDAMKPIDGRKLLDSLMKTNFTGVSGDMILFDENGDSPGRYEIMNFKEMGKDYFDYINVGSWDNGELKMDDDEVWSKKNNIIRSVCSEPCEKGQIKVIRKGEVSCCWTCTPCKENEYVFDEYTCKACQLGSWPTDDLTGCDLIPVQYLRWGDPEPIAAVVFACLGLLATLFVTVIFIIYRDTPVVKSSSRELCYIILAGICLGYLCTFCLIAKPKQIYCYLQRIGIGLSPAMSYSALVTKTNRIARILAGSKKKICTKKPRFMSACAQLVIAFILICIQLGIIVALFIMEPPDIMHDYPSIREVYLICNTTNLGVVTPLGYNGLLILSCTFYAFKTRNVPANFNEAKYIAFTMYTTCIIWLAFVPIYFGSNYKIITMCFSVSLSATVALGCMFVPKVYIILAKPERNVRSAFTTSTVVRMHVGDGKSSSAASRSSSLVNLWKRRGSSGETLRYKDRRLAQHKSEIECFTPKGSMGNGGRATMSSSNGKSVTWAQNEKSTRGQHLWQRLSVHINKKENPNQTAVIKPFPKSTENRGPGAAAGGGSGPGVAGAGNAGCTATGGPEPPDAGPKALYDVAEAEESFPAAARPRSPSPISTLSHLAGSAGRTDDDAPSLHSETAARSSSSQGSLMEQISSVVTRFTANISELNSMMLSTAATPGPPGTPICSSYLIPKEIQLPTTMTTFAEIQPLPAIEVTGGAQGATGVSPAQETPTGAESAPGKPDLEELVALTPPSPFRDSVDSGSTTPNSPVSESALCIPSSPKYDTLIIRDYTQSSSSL
Method in brief: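 Rat cortical primary astrocytes at 14-15 DIV, loaded with Ca-sensitive dye for 2 h at RT, pH 7.3 buffer; FLIPR fluorescence after L-quisqualate (100 nM), antagonists pre-incubated 10 min. PAMs: quisqualate curves ± 10 µM modulator, or modulator curves at fixed 10-30 nM quisqualate. Max-min responses as % control, logistic fit.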

[2] = target: T2, human metabotropic glutamate receptor mGluR5 (Homo sapiens, UniProt P41594); assay: Cytosolic calcium studies with stably transfected cells (h5CHO), functional assay of mGluR5 receptors; format: cell-based; conditions: for h left shift: h5CHO cells; for pEC50: positive modulators, h5CHO cells preincubated with modulator, stimulated by an EC20 concentration of L-glutamate, read-out: hEC50
T2 construct: expressed in transfected cells; host or cells: CHO-K1 (h5CHO), IPTG-inducible
T2 sequence (P41594 21-1212): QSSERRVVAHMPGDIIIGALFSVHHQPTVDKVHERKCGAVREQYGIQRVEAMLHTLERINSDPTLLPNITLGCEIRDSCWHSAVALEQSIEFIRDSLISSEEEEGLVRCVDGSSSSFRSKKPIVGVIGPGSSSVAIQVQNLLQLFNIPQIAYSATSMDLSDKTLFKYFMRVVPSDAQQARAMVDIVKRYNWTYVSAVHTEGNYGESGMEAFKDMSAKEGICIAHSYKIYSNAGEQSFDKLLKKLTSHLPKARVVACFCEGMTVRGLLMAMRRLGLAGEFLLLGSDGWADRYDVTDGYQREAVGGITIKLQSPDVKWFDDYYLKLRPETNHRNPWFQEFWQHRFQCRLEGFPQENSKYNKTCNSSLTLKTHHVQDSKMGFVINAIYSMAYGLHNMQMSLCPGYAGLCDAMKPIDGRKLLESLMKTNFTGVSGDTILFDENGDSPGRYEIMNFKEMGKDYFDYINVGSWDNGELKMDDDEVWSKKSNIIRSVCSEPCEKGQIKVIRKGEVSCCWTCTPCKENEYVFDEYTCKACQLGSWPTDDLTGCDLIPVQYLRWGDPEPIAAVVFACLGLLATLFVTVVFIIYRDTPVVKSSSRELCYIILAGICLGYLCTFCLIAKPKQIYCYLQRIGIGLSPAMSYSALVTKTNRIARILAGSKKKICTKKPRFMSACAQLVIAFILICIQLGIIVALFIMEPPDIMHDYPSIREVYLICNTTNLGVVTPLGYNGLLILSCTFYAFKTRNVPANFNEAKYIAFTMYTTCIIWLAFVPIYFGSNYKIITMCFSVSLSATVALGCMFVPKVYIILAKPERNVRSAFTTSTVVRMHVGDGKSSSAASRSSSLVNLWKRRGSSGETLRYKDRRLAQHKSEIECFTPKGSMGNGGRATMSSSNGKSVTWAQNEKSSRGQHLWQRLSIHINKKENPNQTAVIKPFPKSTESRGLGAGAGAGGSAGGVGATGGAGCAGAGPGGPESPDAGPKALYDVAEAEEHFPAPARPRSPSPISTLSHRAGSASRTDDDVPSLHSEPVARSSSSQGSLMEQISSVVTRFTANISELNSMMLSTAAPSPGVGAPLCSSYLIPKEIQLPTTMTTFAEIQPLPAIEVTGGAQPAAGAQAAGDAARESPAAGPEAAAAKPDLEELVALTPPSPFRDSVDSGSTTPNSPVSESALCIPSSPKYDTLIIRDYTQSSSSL
Method in brief: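 IPTG-induced h5CHO (CHO-K1 expressing human mGluR5) loaded with calcium dye; compounds (0.5% DMSO) added 5 min before agonist. NAM IC50 against L-quisqualate at ~EC80; PAM EC50 with EC20 L-glutamate. FLIPR fluorescence, max-minus-min, % of maximal response, logistic fit.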

[3] = Table A1, left shift of quisqualate EC50 in the presence and absence of 10 µM modulator
[4] = Table A3 (SAMs / very weak PAMs), quisqualate EC50 shift with 10 µM modulator
[5] = Table A1, left shift of agonist EC50, dose response curves in the presence of 10 µM modulator or vehicle
[6] = Table A3 (SAMs / very weak PAMs), agonist EC50 shift with 10 µM modulator or vehicle

r left shift [1, 3]	pEC50 [1]	r left shift [1, 4]	h left shift [2, 5]	pEC50 ([2]; Table A1)	h left shift [2, 6]	Compound
3.5-fold	7.17	3.5-fold	2.3-fold	6.41	2.3-fold	CCCN1CCO[C@@H]2c3cc(C#Cc4ccccc4)cnc3CC[C@@H]21 (single isomer, unassigned) [Example 17, cis-9-(Phenylethynyl)-4-propyl-3,4,4a,5,6,10b-hexahydro-2H-[1,4]oxazino[2,3-f]quinoline]
4.4-fold	7.90	4.4-fold	2.3-fold	7.68	2.3-fold	COC1CCCc2ncc(C#Cc3ccccc3)cc21 (single isomer, unassigned) [Example 2, 5-Methoxy-3-(phenylethynyl)-5,6,7,8-tetrahydroquinoline]
–	–	1.6-fold	–	–	1.3-fold	CCOC(=O)N1CCc2ncc(C#Cc3ccccc3)cc2C1 [Example 40, Ethyl 3-(phenylethynyl)-7,8-dihydro-1,6-naphthyridine-6(5H)-carboxylate]
–	–	0.8-fold	–	–	1.3-fold	COC(=O)N1CC[C@H]2CCc3ncc(C#Cc4ccccc4)cc3[C@H]21 (racemic) [Example 29, (rac)-cis-Methyl 8-(phenylethynyl)-2,3,3a,4,5,9b-hexahydro-1H-pyrrolo[2,3-f]quinoline-1-carboxylate]
–	–	1.9-fold	–	–	1.3-fold	CCCN1CCO[C@@H]2c3cc(C#Cc4cccc(C)c4)cnc3CC[C@@H]21 (racemic) [Example 21, (rac)-cis-4-Propyl-9-(m-tolylethynyl)-3,4,4a,5,6,10b-hexahydro-2H-[1,4]oxazino[2,3-f]quinoline]
–	–	1.3-fold	–	–	1.6-fold	CCCN1CC2(CCCc3ncc(C#Cc4cccc(F)c4)cc32)OC1=O (racemic) [Example 66, (rac)-3'-((3-Fluorophenyl)ethynyl)-3-propyl-7',8'-dihydro-6'H-spiro[oxazolidine-5,5'-quinolin]-2-one]
–	–	1.3-fold	–	–	1.4-fold	CC(C)C(=O)N1CCc2ncc(C#Cc3ccccc3)cc2C1 [Example 33, 2-Methyl-1-(3-(phenylethynyl)-7,8-dihydro-1,6-naphthyridin-6(5H)-yl)propan-1-one]
–	–	0.9-fold	–	–	1.2-fold	CCCN1CC2(CCCc3ncc(C#Cc4cccc(C)c4)cc32)OC1=O (racemic) [Example 64, (rac)-3-Propyl-3'-(m-tolylethynyl)-7',8'-dihydro-6'H-spiro[oxazolidine-5,5'-quinolin]-2-one]
